Results from US9809597B2, “Ganciclovir derivatives for modulating innate and adaptive immunity and for use in immunotherapy” (The Board of Trustees of the Leland Stanford Junior …, priority 2015, dated 2017).

Tested on: BV-2 and primary microglia stimulated with IFNγ and LPS
Test: RT-PCR of inflammatory transcripts in IFNγ/LPS stimulated microglia
Type: cell-based, mouse
Conditions: 200 μM GCV, 24 hours
Experimental: BV-2 mouse microglia cells were grown in DMEM+10% FBS and THP-1 human monocyte cells were grown in RPMI-40+10% FBS+0.05 mM β-mercaptoethanol at 37° C., 5% CO2. Adherent cells were split using 1×TrypLE (Gibco). For cellular assays, cells were treated with the following concentrations of drugs as indicated in the DMEM without serum: 100-200 μM ganciclovir, 10 ng/ml IFNγ (R&D systems), 100 ng/ml LPS (Sigma-Aldrich), 1-10 μM Fludarabine (Selleckchem), 1 μM Ruxolitinib (Selleckchem), 1 μM TG-101348 (Selleckchem), 1 μM Amlexanox (Tocris bioscience) unless otherwise noted. All experiments were run in triplicates and replicated at least 3 times with cell lines and at least twice with primary microglia. Average data are shown for cell lines and representative data are shown for primary cells. Secreted signaling proteins were measured in supernatants from cultured cells stimulated with GCV and conditioned for 24 hours in the absence of serum using two independent Luminex arrays (Human Immune Monitoring Center, Stanford and Eve technologies, Canada). Nitrite assay was performed on conditioned culture supernatants of cells stimulated with drugs for 24 hours using the Griess Reagent System (Promega) according to manufacturer's instructions. To assess cellular viability, cell confluence was measured using an automated microscope (Cellavista; Roche). Mice were housed and bred according to the Institutional Animal Care and Use Committee guidelines. Primary microglia and astrocytes were isolated from P0-P3 C57BL/6 mouse pups. Cortices from pups were isolated, meninges removed and tissue was dissociated using a 25-gauge needle. Two cortices were plated on each poly-L-lysine coated T-75 flasks in DMEM/F12+10% FBS+1% penicillin/streptomycin. Microglia and astrocyte co-cultures were maintained for 3 weeks, after which microglia were isolated using CD11b magnetic beads (Miltenyi Biotec) according to the manufacturer's instructions. Isolated microglia were allowed to recover for 1-2 days and processed for cellular assays described above. RNA was isolated from cells using RNeasy mini kit from Qiagen. […] was converted to cDNA using SuperScript III reverse transcriptase kit (Life technologies). The cDNA was used to quantify specific targets using SYBR green in Roche Lightcycler 480. ΔΔCt values normalized against the experimental control to determine fold change in mRNA for each sample compared to untreated or vehicle treated control. β-actin or Ubc or both were used as housekeeping genes. Primer sequences were obtained from PrimerBank. Fold change is shown compared to the vehicle treated or untreated cells, unless otherwise noted.

[1] = BV-2 and primary microglia stimulated with IFNγ and LPS
[2] = IFNγ/LPS-stimulated STING^gt/gt primary microglia

Nc1nc(O)c2ncn(COC(CO)CO)c2n1 [GCV, Ganciclovir]
CCL2 transcript [1]: almost complete transcriptional inhibition
iNOS transcript [1]: almost complete transcriptional inhibition
iNOS and CCL2 transcripts in GCV treated STING^gt/gt microglia [2]: higher
reduction of inflammatory markers in STING^gt/gt primary microglia [2]: unable to do so
inflammatory markers in wildtype primary microglia (IFNγ/LPS-stimulated wildtype primary microglia): reduced
